Reference: patent US20250304560A1, “MODULATORS OF NLRP3 INFLAMMASOME AND RELATED PRODUCTS AND METHODS” (Neumora Therapeutics, Inc., priority 2022, published 2025)
Read-outs that look alike come from different tables or passages of the source.

Legend:
NLRP3 inflammasome = NLRP3 inflammasome (Homo sapiens, UniProt Q96P20); test: NLRP3 inflammasome activation in THP1 macrophages, IL-1β AlphaLISA
IL-6 = IL-6 AlphaLISA in LPS-primed THP1 macrophages; conditions: for IC50: Homo sapiens
hERG channels = molecular target: T1, hERG channels (Homo sapiens, UniProt Q12809); test: hERG assay, whole-cell patch-clamp in CHO-hERG cells; assay type: cell-based; conditions: for IC50: whole-cell patch-clamp, CHO-hERG cells
T1 construct: host or cells: CHO-hERG cells
Description: CHO-hERG cells (Sophion Biosciences (Ballerup, Denmark), subcultured and frozen in WuXi AppTec (Suzhou) Co., Ltd.), stored in liquid nitrogen, were tested and determined to be free from mycoplasma contamination. Cells were not used after the 30th passage. CHO-hERG cells were cultured in a humidified incubator of 5% CO2 (4% to 8%) in air at 37° C. (±2° C.). The cells were recovered with recovery medium (F12 medium with 10% fetal bovine serum), subcultured in complete medium (F12 medium, supplemented with 10% fetal bovine serum, 1% Geneticin® selective antibiotic (G418), 89 μg/mL Hygromycin B (HB)), and the culture medium was switched to recovery medium in the last subculture before patch-clamp experiment.
To determine the compounds' IC50, select compounds (“test articles”) were dissolved into DMSO, and then diluted with ECS to get working solutions. Five concentrations of 0.3, 1, 3, 10, and 30 μM were tested. Two replicate cells for each concentration were tested.
Exponentially growing CHO-hERG cells were collected and suspended in extracellular solution for use. The hERG current was recorded at physiological temperature (33.0° C. to 37.0° C.) using whole-cell patch-clamp techniques. Output signals from the patch-clamp amplifier were digitized and low-pass filtered at 2.9 KHz. The recording was controlled with Patchmaster Pro software. The recording chamber with seeded cells was mounted on an inverted microscope stage. A cell in the recording chamber was randomly selected for testing. The cell was continuously perfused from the perfusion system. A micropipette filled with ICS was used as recording electrode in the manual patch-clamp study. The micropipette was prepared on the day of the patch-clamp experiment using glass capillaries (BF150-117-10, SUTTER INSTRUMENT USA). The pipette resistance (Rp) was within 2 to 5 MΩ with ICS filled. From the holding potential of-80 mV, the voltage was increased to +60 mV for 850 ms to open the hERG channels. After that, the voltage was decreased to-50 mV for 1275 ms, causing a “rebound” or tail current, the peak tail current was measured and collected for data analysis. Finally, the voltage was decreased to the holding potential (−80 mV). This command voltage protocol was repeated every 15 s continuously during the test article application.
During the initial recording period with vehicle control working solution, the peak tail current amplitude was monitored until it had been stable for at least 3 sweeps. Cells were then perfused with test article/positive control working solutions until the peak tail current amplitude reached steady state. Steady state was considered reached when three consecutive super-imposable peak tail currents were collected. At this point, cells were once again perfused with next concentration of test article. One or more test articles/positive control or different concentrations of the same test article were tested on each cell with vehicle control washout until the current amplitude returned to values at least 80% of those measured before application of test article. […] At least 2 replicate cells for each concentration were tested. […] (Milnes, J. T., et al.)
Seal criteria: When acquiring whole-cell configuration, a holding potential (e.g.,-80 mV) was applied while membrane parameters were collected (Cm, Rm and Rs). A “good” whole-cell recording was generally defined as: series resistance (Rs) was less than 10 MΩ; membrane resistance (Rm) was more than 500 MΩ and membrane capacitance (Cm) was less than 100 pF. Current amplitude: The peak current amplitude must be between 400 pA and 5000 pA before the test article/positive control application; otherwise the cell was discarded. Leak criteria: At-80 mV holding potential, the absolute leak current value must be less than 200 pA. The amplitude of current was adjusted with leak current at-80 mV. The sweeps which absolute leak current value was more than 200 pA was not used in data analysis.

[1] = IL-1β Activity (nM), THP1 macrophages, PMA, LPS priming, nigericin 6.7 uM activation
[2] = THP-1, read-out: IL-6 Activity (μM), THP1 macrophages, PMA, LPS priming, nigericin 6.7 uM
[3] = THP-1, read-out: IL-6 Activity, LPS-primed THP1 macrophages, Table 11 comparison
[4] = IL-1β Activity, THP1 macrophages, Table 11 comparison
[5] = THP-1, read-out: IL-6 Activity (μM)

Chain of NLRP3 inflammasome (Q96P20 whole entry): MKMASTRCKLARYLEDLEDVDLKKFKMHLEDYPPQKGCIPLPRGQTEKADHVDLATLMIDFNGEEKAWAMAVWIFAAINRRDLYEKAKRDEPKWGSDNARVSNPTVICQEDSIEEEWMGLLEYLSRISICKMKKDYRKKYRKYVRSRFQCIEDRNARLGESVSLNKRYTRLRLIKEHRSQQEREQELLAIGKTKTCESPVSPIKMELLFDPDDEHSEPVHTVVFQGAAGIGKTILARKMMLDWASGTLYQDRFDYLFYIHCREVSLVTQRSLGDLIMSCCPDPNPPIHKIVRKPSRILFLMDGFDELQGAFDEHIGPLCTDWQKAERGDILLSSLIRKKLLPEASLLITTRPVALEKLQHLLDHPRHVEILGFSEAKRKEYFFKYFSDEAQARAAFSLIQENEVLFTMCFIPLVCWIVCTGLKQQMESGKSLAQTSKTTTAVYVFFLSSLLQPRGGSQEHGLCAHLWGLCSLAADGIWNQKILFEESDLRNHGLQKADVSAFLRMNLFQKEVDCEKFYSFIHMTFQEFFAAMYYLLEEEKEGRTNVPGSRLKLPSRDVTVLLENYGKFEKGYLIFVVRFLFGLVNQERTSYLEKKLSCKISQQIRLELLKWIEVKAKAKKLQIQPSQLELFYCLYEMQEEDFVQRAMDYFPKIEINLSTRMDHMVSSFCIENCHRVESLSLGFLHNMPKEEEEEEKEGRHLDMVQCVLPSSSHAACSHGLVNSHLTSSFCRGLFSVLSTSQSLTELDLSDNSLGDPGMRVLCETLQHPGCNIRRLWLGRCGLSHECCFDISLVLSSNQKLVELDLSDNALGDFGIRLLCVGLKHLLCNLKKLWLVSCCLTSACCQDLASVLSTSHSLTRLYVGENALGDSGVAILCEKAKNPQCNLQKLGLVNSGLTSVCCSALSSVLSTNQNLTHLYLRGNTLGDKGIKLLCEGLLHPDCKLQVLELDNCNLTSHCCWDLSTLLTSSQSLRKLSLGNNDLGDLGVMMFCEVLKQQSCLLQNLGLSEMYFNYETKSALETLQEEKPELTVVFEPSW
T1 sequence (Q12809 whole entry): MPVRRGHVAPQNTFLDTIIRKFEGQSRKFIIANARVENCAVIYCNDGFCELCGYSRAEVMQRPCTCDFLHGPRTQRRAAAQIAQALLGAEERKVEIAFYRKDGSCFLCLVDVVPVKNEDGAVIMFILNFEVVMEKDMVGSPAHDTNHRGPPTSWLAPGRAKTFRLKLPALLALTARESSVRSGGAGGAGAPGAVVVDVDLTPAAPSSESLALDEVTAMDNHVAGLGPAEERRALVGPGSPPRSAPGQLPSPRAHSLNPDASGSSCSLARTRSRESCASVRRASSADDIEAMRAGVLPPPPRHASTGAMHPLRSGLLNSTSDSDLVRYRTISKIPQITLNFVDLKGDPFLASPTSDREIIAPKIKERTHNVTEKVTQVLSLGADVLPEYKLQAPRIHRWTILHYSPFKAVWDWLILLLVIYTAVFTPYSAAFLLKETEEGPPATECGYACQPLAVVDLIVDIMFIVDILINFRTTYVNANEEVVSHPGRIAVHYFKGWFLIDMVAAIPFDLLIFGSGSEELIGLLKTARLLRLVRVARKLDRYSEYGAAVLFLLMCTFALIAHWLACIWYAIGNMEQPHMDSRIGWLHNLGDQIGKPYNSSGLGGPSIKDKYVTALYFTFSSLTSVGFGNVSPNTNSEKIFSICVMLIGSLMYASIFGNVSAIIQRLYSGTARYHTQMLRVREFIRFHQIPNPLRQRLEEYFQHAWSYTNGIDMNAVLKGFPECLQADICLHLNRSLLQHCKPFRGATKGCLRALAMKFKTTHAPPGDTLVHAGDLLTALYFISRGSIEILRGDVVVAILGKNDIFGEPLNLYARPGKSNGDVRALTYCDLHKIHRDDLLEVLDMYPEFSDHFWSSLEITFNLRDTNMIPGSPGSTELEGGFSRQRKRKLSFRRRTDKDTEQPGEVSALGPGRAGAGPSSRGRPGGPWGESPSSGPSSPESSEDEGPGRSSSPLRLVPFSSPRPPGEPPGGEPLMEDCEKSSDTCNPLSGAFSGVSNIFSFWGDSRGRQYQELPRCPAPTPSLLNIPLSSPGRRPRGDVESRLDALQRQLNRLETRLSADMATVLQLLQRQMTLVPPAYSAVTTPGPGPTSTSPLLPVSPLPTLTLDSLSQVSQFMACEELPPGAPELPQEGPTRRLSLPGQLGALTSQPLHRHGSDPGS

Compound	IC50 (NLRP3 inflammasome; [1])	IC50 (IL-6; [2])	IC50 (hERG channels; 33.0-37.0 °C, Table 10)	IC50 (IL-6; [3])	hERG inhibition (in words) (hERG channels)	IC50 (hERG channels; Table 11 comparison)	IL-1ß activity (in words) (NLRP3 inflammasome)	other results
Cc1cccc(O)c1-c1ccc(N[C@@H]2CCCN(C)C2)nn1 [compound 7]	1 to 10 nM	1 to 5 µM	> 30 µM	–	–	–	–	–
Cc1cc(N[C@@H]2CCCN(C)C2)nnc1-c1ccc(C(F)(F)F)cc1O [A, reference compound]	–	–	–	> 10 µM	high	≤ 1 µM	–	–
Cc1cc(N[C@@H]2CCCN(C)C2)nnc1-c1cccc(C)c1O [compound 67]	< 1 nM	5 to 10 µM	10 to 20 µM	–	–	–	–	–
Cc1ccc(-c2nnc(N[C@@H]3CCCN(C)C3)cc2C)c(O)c1 [C, reference compound]	–	–	–	> 10 µM	high	10 to 20 µM	potent	IC50 (NLRP3 inflammasome; [4]): < 1 nM
Cc1cc(N[C@@H]2CCCN(C)C2)nnc1-c1ccc(C2CC2)cc1O [compound 3]	–	5 to 10 µM	3 to 10 µM	5 to 10 µM	high	3 to 10 µM	–	–
Cc1cc(N[C@@H]2CCCN(C)C2)nnc1-c1ccc(Cl)cc1O [D, reference compound]	–	–	–	> 10 µM	high	3 to 10 µM	potent	–
Cc1cc(N[C@@H]2CCCN(C)C2)nnc1-c1ccccc1O [compound 2, 2-[4-methyl-6-[[(3R)-1-methyl-3-piperidyl]amino]pyridazin-3-yl]phenol]	1 to 10 nM	5 to 10 µM	> 30 µM	5 to 10 µM	unexpectedly low	> 30 µM	potent	IC50 (NLRP3 inflammasome; [4]): 1 to 10 nM; IL-6 activity (in words) (IL-6): potent
Cc1cccc(O)c1-c1ccc(N(C)[C@@H]2CCCN(C)C2)nn1 [compound 21, (R)-3-methyl-2-(6-(methyl (1-methylpiperidin-3-yl)amino)pyridazin-3-yl) phenol]	10 to 100 nM	5 to 10 µM	> 30 µM	5 to 10 µM	unexpectedly low	> 30 µM	potent	IC50 (NLRP3 inflammasome; [4]): 10 to 100 nM; IL-6 activity (in words) (IL-6): potent
CCc1ccc(-c2nnc(N[C@@H]3CCCN(C)C3)cc2C)c(O)c1 [compound 15]	< 1 nM	–	3 to 10 µM	–	high	3 to 10 µM	potent	IC50 (NLRP3 inflammasome; [4]): < 1 nM
Cc1cc(N[C@@H]2CCCN(C)C2)nnc1-c1ccc(OC(F)(F)F)cc1O [B, reference compound]	–	–	–	> 10 µM	high	1 to 3 µM	potent	–
Cc1cc(O[C@@H]2CCCN(C)C2)nnc1-c1ccc(F)cc1O [compound 34]	–	–	> 30 µM	–	–	–	–	IC50 (NLRP3 inflammasome): 10 to 100 nM; IC50 (IL-6; [5]): > 10 µM
Cc1cc(NC[C@@H]2COCCO2)nnc1-c1ccccc1O [compound 120]	–	–	–	–	–	–	–	IC50 (NLRP3 inflammasome): > 1000 nM; IC50 (IL-6; [5]): > 10 µM
Cc1cc(-c2cc(C)c(N[C@@H]3CCCN(C)C3)nn2)c(O)cc1F [compound 79]	100 to 500 nM	< 1 µM	–	–	–	–	–	–
COC(C)(C)C(=O)Nc1cc(C)c(-c2ccccc2O)nn1 [compound 123]	–	–	–	–	–	–	–	IC50 (NLRP3 inflammasome): > 1000 nM; IC50 (IL-6; [5]): > 10 µM
Cc1cc(-c2ccc(F)cc2O)nnc1N[C@@H]1CCCN(CCF)C1 [compound 86]	500 to 1000 nM	> 10 µM	–	–	–	–	–	–
CCc1ccc(-c2ccc(N(C)[C@@H]3CCCN(C)C3)nn2)c(O)c1 [compound 27]	10 to 100 nM	> 10 µM	–	–	–	–	–	–
Cc1cc(N(C)[C@@H]2CCN(C)C2)nnc1-c1ccc(C(F)(F)F)cc1O [compound 97]	–	–	–	–	–	–	–	IC50 (NLRP3 inflammasome): 10 to 100 nM; IC50 (IL-6; [5]): > 10 µM
Cc1cc(CC2CCCN(C)C2)nnc1-c1ccc(C#N)cc1O (stereo not drawn) [compound 102]	–	–	–	–	–	–	–	IC50 (NLRP3 inflammasome): 100 to 500 nM; IC50 (IL-6; [5]): > 10 µM
Cc1ccc(-c2cc(C)c(N[C@@H]3CCCN(C)C3)nn2)c(O)c1 [compound 82]	10 to 100 nM	< 1 µM	–	–	–	–	–	–
CCN1CCC[C@@H](Nc2cc(C)c(-c3ccc(F)cc3O)nn2)C1 [compound 58]	< 1 nM	5 to 10 µM	–	–	–	–	–	–
